US10336739B2, “4-hydroxy-3-(heteroaryl)pyridine-2-one APJ agonists” (BRISTOL-MYERS SQUIBB COMPANY, priority 2015, dated 2019)

Biological target: human APJ receptor (Homo sapiens (Human), UniProt P35414)
Assay: Intracellular cAMP accumulation assay (APJ hcAMP, HTRF)
Type: cell-based
Settings: HEK293 cells stably expressing human APJ receptor; inhibition of forskolin-mediated cAMP production; read-out: hAPJ cAMP EC50 Potency range
Experimental: Intracellular cAMP Accumulation Assay
HEK293 cells stably expressing human APJ receptor were used to assess the activity of compounds. Cultured cells were detached and resuspended in the cAMP Homogeneous Time-Resolved Fluorescence (HTRF) assay buffer (Cisbio cat; #62AM4PEJ). The assay was performed in 384-well assay plates (Perkin-Elmer; cat #6008289) according to assay protocol provided by the manufacturer. Serial dilutions of a compound together with assay buffer containing […] and 2 μM forskolin were added to each well containing 5,000 cells and incubated for 30 minutes at room temperature. Subsequently, cAMP D2 reagent was added in the lysis buffer followed by the EuK antibody (Cisbio; cat #62AM4PEJ) and incubated for 60 min. The fluorescence emission ratio was measured using fluorometer. The intracellular cAMP concentrations (compound-stimulated inhibition of forskolin-mediated cAMP production) were calculated by extrapolation from a standard curve using known cAMP concentrations. The EC50 values were obtained by fitting the data to a sigmoidal concentration-response curve with variable slope.

human APJ receptor, sequence (P35414 whole entry): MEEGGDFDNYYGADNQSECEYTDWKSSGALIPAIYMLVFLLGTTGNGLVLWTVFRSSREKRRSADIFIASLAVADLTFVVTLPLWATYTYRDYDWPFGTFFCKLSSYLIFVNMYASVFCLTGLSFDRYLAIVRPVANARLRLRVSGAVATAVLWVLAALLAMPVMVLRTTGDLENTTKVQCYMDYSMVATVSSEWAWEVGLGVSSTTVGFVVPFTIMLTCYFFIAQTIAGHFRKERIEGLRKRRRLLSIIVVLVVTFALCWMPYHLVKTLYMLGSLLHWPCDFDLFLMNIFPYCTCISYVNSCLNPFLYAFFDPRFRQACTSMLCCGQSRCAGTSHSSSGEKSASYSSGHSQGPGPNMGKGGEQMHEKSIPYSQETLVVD

Compound	EC50
CCCCc1nc(O)c(-c2nnc(CCc3nc(-c4ccc(OC)cc4)no3)o2)c(O)c1-c1c(OC)cccc1OC [Example 60, 6-butyl-5-(2,6-dimethoxyphenyl)-3-(5-{2-[3-(4-methoxyphenyl)-1,2,4-oxadiazol-5-yl]ethyl}-1,3,4-oxadiazol-2-yl)pyridine-2,4-diol]	10 to 100 nM
CCCCc1nc(O)c(-c2nnc(C3NCCc4ccccc43)o2)c(O)c1-c1c(OC)cccc1OC (stereo not shown) [Example 61, 6-butyl-5-(2,6-dimethoxyphenyl)-3-[5-(1,2,3,4-tetra-hydroisoquinolin-1-yl)-1,3,4-oxadiazol-2-yl]pyridine-2,4-diol]	0.01 to 10 nM
CCCCc1nc(O)c(-c2nnc(C(C)(C)c3ccc(Cl)c(Cl)c3)o2)c(O)c1-c1c(OC)cccc1OC [Example 62, 6-butyl-3-{5-[2-(3,4-dichlorophenyl)propan-2-yl]-1,3,4-oxadiazol-2-yl}-5-(2,6-dimethoxyphenyl) pyridine-2,4-diol]	0.01 to 10 nM
CCCCc1nc(O)c(-c2nnc(Cc3nnn(C)n3)o2)c(O)c1-c1c(OC)cccc1OC [Example 63, 6-butyl-5-(2,6-dimethoxyphenyl)-3-{5-[(2-methyl-2H-1,2,3,4-tetrazol-5-yl)methyl]-1,3,4-oxadiazol-2-yl}pyridine-2,4-diol]	0.01 to 10 nM
CCCCc1nc(O)c(-c2nnc(C(C)(C)Cc3ccccc3)o2)c(O)c1-c1c(OC)cccc1OC [Example 64, 6-butyl-5-(2,6-dimethoxyphenyl)-3-[5-(2-methyl-1-phenylpropan-2-yl)-1,3,4-oxadiazol-2-yl]pyridine-2,4-diol]	0.01 to 10 nM
CCCCc1nc(O)c(-c2nnc(COc3ccc(C(F)(F)F)cc3)o2)c(O)c1-c1c(OC)cccc1OC [Example 65, 6-butyl-5-(2,6-dimethoxyphenyl)-3-{5-[4-(trifluoromethyl)phenoxymethyl]-1,3,4-oxadiazol-2-yl}pyridine-2,4-diol]	10 to 100 nM
CCCCc1nc(O)c(-c2nnc(Cc3nnc(-c4ccccc4)[nH]3)o2)c(O)c1-c1c(OC)cccc1OC [Example 66, 6-butyl-5-(2,6-dimethoxyphenyl)-3-{5-[(5-phenyl-4H-1,2,4-triazol-3-yl)methyl]-1,3,4-oxadiazol-2-yl}pyridine-2,4-diol]	0.01 to 10 nM
CCCCc1nc(O)c(-c2nnc(CCc3ccc(Cl)cc3)o2)c(O)c1-c1c(OC)cccc1OC [Example 68, 6-butyl-3-{5-[2-(4-chlorophenyl)ethyl]-1,3,4-oxadiazol-2-yl}-5-(2,6-dimethoxyphenyl) pyridine-2,4-diol]	0.01 to 10 nM
CCCCc1nc(O)c(-c2nnc(CC3CCOCC3)o2)c(O)c1-c1c(OC)cccc1OC [Example 69, 6-butyl-5-(2,6-dimethoxyphenyl)-3-[5-(oxan-4-ylmethyl)-1,3,4-oxadiazol-2-yl]pyridine-2,4-diol]	10 to 100 nM
CCCCc1nc(O)c(-c2nnc(Cc3ccc(F)c(Cl)c3)o2)c(O)c1-c1c(OC)cccc1OC [Example 70, 6-butyl-3-{5-[(3-chloro-4-fluorophenyl)methyl]-1,3,4-oxadiazol-2-yl}-5-(2,6-dimethoxyphenyl) pyridine-2,4-diol]	0.01 to 10 nM
CCCCc1nc(O)c(-c2nnc(Cc3ccc(Cl)c(F)c3)o2)c(O)c1-c1c(OC)cccc1OC [Example 71, 6-butyl-3-{5-[(4-chloro-3-fluorophenyl)methyl]-1,3,4-oxadiazol-2-yl}-5-(2,6-dimethoxyphenyl) pyridine-2,4-diol]	0.01 to 10 nM
CCCCc1nc(O)c(-c2nnc(CCc3nccs3)o2)c(O)c1-c1c(OC)cccc1OC [Example 72, 6-butyl-5-(2,6-dimethoxyphenyl)-3-{5-[2-(1,3-thiazol-2-yl)ethyl]-1,3,4-oxadiazol-2-yl}pyridine-2,4-diol]	0.01 to 10 nM
CCCCc1nc(O)c(-c2nnc(CCc3ccc(C(F)(F)F)cc3)o2)c(O)c1-c1c(OC)cccc1OC [Example 75, 6-butyl-5-(2,6-dimethoxyphenyl)-3-(5-{2-[4-(trifluoromethyl)phenyl]ethyl}-1,3,4-oxadiazol-2-yl)pyridine-2,4-diol]	10 to 100 nM
CCCCc1nc(O)c(-c2nnc(COc3ccc(F)c(F)c3)o2)c(O)c1-c1c(OC)cccc1OC [Example 76, 6-butyl-3-[5-(3,4-difluorophenoxy-methyl)-1,3,4-oxadiazol-2-yl]-5-(2,6-dimethoxyphenyl) pyridine-2,4-diol]	10 to 100 nM
CCCCc1nc(O)c(-c2nnc(CCc3nc(-c4ccccc4)no3)o2)c(O)c1-c1c(OC)cccc1OC [Example 77, 6-butyl-5-(2,6-dimethoxyphenyl)-3-{5-[2-(3-phenyl-1,2,4-oxadiazol-5-yl)ethyl]-1,3,4-oxadiazol-2-yl}pyridine-2,4-diol]	10 to 100 nM
CCCCc1nc(O)c(-c2nnc(Cc3cnn(-c4ccccc4)c3)o2)c(O)c1-c1c(OC)cccc1OC [Example 78, 6-butyl-5-(2,6-dimethoxyphenyl)-3-{5-[(1-phenyl-1H-pyrazol-4-yl)methyl]-1,3,4-oxadiazol-2-yl}pyridine-2,4-diol]	10 to 100 nM
CCCCc1nc(O)c(-c2nnc(Cc3ccc(C(F)(F)F)cc3)o2)c(O)c1-c1c(OC)cccc1OC [Example 80, 6-butyl-5-(2,6-dimethoxyphenyl)-3-(5-{[4-(trifluoromethyl)phenyl]methyl}-1,3,4-oxadiazol-2-yl)pyridine-2,4-diol]	0.01 to 10 nM
CCCCc1nc(O)c(-c2nnc(CCc3nc4ccccc4s3)o2)c(O)c1-c1c(OC)cccc1OC [Example 82, 3-{5-[2-(1,3-benzothiazol-2-yl)ethyl]-1,3,4-oxadiazol-2-yl}-6-butyl-5-(2,6-dimethoxyphenyl) pyridine-2,4-diol]	0.01 to 10 nM
CCCCc1nc(O)c(-c2nnc(CCc3nc(-c4ccccn4)no3)o2)c(O)c1-c1c(OC)cccc1OC [Example 83, 6-butyl-5-(2,6-dimethoxyphenyl)-3-(5-{2-[3-(pyridin-2-yl)-1,2,4-oxadiazol-5-yl]ethyl}-1,3,4-oxadiazol-2-yl)pyridine-2,4-diol]	0.01 to 10 nM
CCCCc1nc(O)c(-c2nnc(Cc3nc(-c4ccccc4)sc3C)o2)c(O)c1-c1c(OC)cccc1OC [Example 84, 6-butyl-5-(2,6-dimethoxyphenyl)-3-{5-[(5-methyl-2-phenyl-1,3-thiazol-4-yl)methyl]-1,3,4-oxadiazol-2-yl}pyridine-2,4-diol]	0.01 to 10 nM
CCCCc1nc(O)c(-c2nnc(Cc3ccc(Cl)cc3)o2)c(O)c1-c1c(Cl)cccc1Cl [Example 87, 6-butyl-3-{5-[(4-chlorophenyl)methyl]-1,3,4-oxadiazol-2-yl}-5-(2,6-dichlorophenyl) pyridine-2,4-diol]	10 to 100 nM
CCCCc1nc(O)c(-c2nnc(C(c3ccc(F)cc3)N(C)C)o2)c(O)c1-c1c(OC)cccc1OC (stereo not shown) [Example 88, 6-butyl-5-(2,6-dimethoxyphenyl)-3-{5-[(dimethylamino) (4-fluorophenyl)methyl]-1,3,4-oxadiazol-2-yl}pyridine-2,4-diol]	0.01 to 10 nM

Other lines, results leading:

EC50	Compound
0.01 to 10 nM	CCCCc1nc(O)c(-c2nnc(Cc3ccnc(Cl)c3)o2)c(O)c1-c1c(OC)cccc1OC [Example 59, 6-butyl-3-{5-[(2-chloropyridin-4-yl)methyl]-1,3,4-oxadiazol-2-yl}-5-(2,6-dimethoxyphenyl) pyridine-2,4-diol]
0.01 to 10 nM	CCCCc1nc(O)c(-c2nnc(CC3CCCCC3)o2)c(O)c1-c1c(OC)cccc1OC [Example 67, 6-butyl-3-[5-(cyclohexylmethyl)-1,3,4-oxadiazol-2-yl]-5-(2,6-dimethoxyphenyl) pyridine-2,4-diol]
10 to 100 nM	CCCCc1nc(O)c(-c2nnc(Cc3cccc(C(F)(F)F)c3)o2)c(O)c1-c1c(OC)cccc1OC [Example 73, 6-butyl-5-(2,6-dimethoxyphenyl)-3-(5-{[3-(trifluoromethyl)phenyl]methyl}-1,3,4-oxadiazol-2-yl)pyridine-2,4-diol]
0.01 to 10 nM	CCCCc1nc(O)c(-c2nnc(CCc3ccc(F)c(F)c3)o2)c(O)c1-c1c(OC)cccc1OC [Example 74, 6-butyl-3-{5-[2-(3,4-difluorophenyl)ethyl]-1,3,4-oxadiazol-2-yl}-5-(2,6-dimethoxyphenyl) pyridine-2,4-diol]
0.01 to 10 nM	CCCCc1nc(O)c(-c2nnc(Cc3csc(C)n3)o2)c(O)c1-c1c(OC)cccc1OC [Example 79, 6-butyl-5-(2,6-dimethoxyphenyl)-3-{5-[(2-methyl-1,3-thiazol-4-yl)methyl]-1,3,4-oxadiazol-2-yl}pyridine-2,4-diol]
0.01 to 10 nM	CCCCc1nc(O)c(-c2nnc(CCc3ncccn3)o2)c(O)c1-c1c(OC)cccc1OC [Example 81, 6-butyl-5-(2,6-dimethoxyphenyl)-3-{5-[2-(pyrimidin-2-yl)ethyl]-1,3,4-oxadiazol-2-yl}pyridine-2,4-diol]
10 to 100 nM	CCCCc1nc(O)c(-c2nnc(CCc3ccc(Cl)c(Cl)c3)o2)c(O)c1-c1c(OC)cccc1OC [Example 85, 6-butyl-3-{5-[2-(3,4-dichlorophenyl)ethyl]-1,3,4-oxadiazol-2-yl}-5-(2,6-dimethoxyphenyl) pyridine-2,4-diol]
0.01 to 10 nM	CCCCc1nc(O)c(-c2nnc(Cc3noc4ccccc34)o2)c(O)c1-c1c(Cl)cccc1Cl [Example 86, 3-[5-(1,2-benzoxazol-3-ylmethyl)-1,3,4-oxadiazol-2-yl]-6-butyl-5-(2,6-dichlorophenyl) pyridine-2,4-diol]
0.01 to 10 nM	CCOCc1nc(O)c(-c2nnc(Cc3noc4ccccc34)o2)c(O)c1-c1c(OC)cccc1OC [Example 89, 3-[5-(1,2-benzoxazol-3-ylmethyl)-1,3,4-oxadiazol-2-yl]-5-(2,6-dimethoxyphenyl)-6-(ethoxymethyl) pyridine-2,4-diol]
